In one series the test system is VEGFR2 (KDR/Fc). Description: Coprecipitation assay, VEGF with VEGFR2/Fc in solution. The series is classed as binding. Conditions: 40 ng VEGF, 200 ng receptor/Fc, F(ab′)2 of antibody. Here is the method:
200 ng of soluble forms of VEGFR1 (Flt-1/Fc) or VEGFR2 (KDR/Fc, R&D Systems, Minneapolis, Minn.) were added for a total volume of 50 μl and incubated for 2 hrs. The receptor/Fc constructs were precipitated using Protein A-sepharose beads and the resulting precipitate was washed 4 times with binding buffer.
Reducing sample buffer was added to the pellet and supernatant of each reaction and both were analyzed by 12% SDS-PAGE and transferred to PVDF membranes. […] The soluble receptor/Fc constructs were also detected by using peroxidase-conjugated goat anti-human Fc (Kirkegaard & Perry Laboratories, Inc.)
The receptor/Fc constructs were precipitated by incubation with Protein A sepharose beads. The precipitate was washed and resuspended in reducing sample buffer and separated by 12% SDS-PAGE and transferred to PVDF.

Series [1] in a line: Blood clearance of radioiodinated 2C3-GUS in mice. It counts as in vivo, mouse. The settings on record: after intravenous injection into mice, 125I-labelled. From the text: 2C3-GUS was radioiodinated with ^125I to a specific activity of 5×10^6 cpm/μg.
In series [2] the test system is human NCI-H358 NSCLC tumors. Description: Localization of 2C3-GUS in SCID mice bearing NCI-H358 tumors. It counts as in vivo, mouse.
The next series addresses T1, VEGF (Homo sapiens, UniProt P15692).
T1 sequence (P15692 27-191 isoform P15692-4): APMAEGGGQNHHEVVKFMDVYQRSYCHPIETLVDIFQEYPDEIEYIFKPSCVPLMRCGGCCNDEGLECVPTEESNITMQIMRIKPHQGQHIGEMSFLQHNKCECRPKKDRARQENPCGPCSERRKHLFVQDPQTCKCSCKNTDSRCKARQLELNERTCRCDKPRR
Description: Competition ELISA (epitope groups, cross-blocking). It counts as binding. Conditions: ELISA cross-blocking studies of 2C3 with A4.6.1. The method, then:
Competition ELISA studies were performed by first labeling the antibodies with peroxidase according to the manufacturer's instructions (EZ-Link Activated Peroxidase, Pierce). […] Approximately 0.5–2.0 μg/ml of peroxidase labeled test antibody was incubated on the plate in the presence of either buffer alone, an irrelevant IgG, or the other anti-VEGF competing antibodies in a 10–100 fold excess.
The assay was done in triplicate at least twice for each combination of labeled and competitor antibody. Two antibodies were considered to be in the same epitope group if they cross-blocked each other's binding by greater than 80%.
For orientation: ELISA stands for enzyme-linked immunosorbent assay.

The next series deals with VEGFR2 in PAE/KDR cells. Description: VEGF-induced phosphorylation of VEGFR2 (immunoprecipitation and western blot). The series is classed as cell-based, porcine. Conditions: antibody at 100 nM, 15 min. Here is the method:
PAE/KDR, PAE/FLT, and bEND.3 cells were grown to 80–90% confluency in 100 mm tissue dishes in media containing 5% serum. The cells were then serum starved for 24 hours in media containing 0.1% serum. After pretreatment with […] in PBS for 30 min, the cells were incubated with 5 nM (200 ng/ml) VEGF165, 5 nM (100 ng/ml) bFGF (R&D Systems, Minneapolis, Minn.), or A673 tumor conditioned media in the presence or absence of control or test antibodies for additional 15 min.
The cells were then washed with ice-cold PBS containing 10 mM EDTA, 2 mM sodium fluoride, and 2 mM sodium orthovanadate and lysed in lysis buffer (50 mM Tris, 150 mM NaCl, 1% Nonidet P-40, 0.25% sodium deoxycholate, 0.1% CHAPS, 5 mM EDTA, 1.5 mM MgCl2, 2 mM sodium fluoride, 2 mM sodium orthovanadate, 10% glycerol and protease inhibitors (Complete Protease Inhibitor Cocktail tablets, Boehringer Mannheim)). The lysates were clarified by centrifugation and resulting supernatant used for immunoprecipitation.
The reactions using the chicken anti-FLT-1 antibody were subsequently incubated with a bridging goat anti-chicken antibody (Kirkegaard and Perry Laboratories, Inc.) for 1 h at 4° C. […]
A general note: Immunoblotting shows a protein as a band on a membrane.

The subject of the next series is NCI-H358 NSCLC. Nature of the series: In vivo tumor growth inhibition, newly-implanted NCI-H358. Also noted: species or system mouse. The method, then: (§1) Nu/nu mice were injected subcutaneously with either 1×10^7 NCI-H358 NSCLC cells or 5×10^6 A673 rhabdomyosarcoma cells on day 0. […] The tumors were then measured twice per wk for a period of approximately six wk for the NCI-H358 bearing mice and four wk for the A673 bearing mice. Tumor volume was calculated according to the formula: volume=L×W×H, where L=length, W=width, H=height.

The next series concerns HT1080 fibrosarcoma. Description: In vivo tumor therapy, established HT1080 xenografts. Also noted: species or system mouse. Conditions: 100 μg i.p. every other day. Here is the method: (§2) Male nu/nu mice bearing subcutaneous NCI-H358 tumors or HT1080 fibrosarcoma 200–400 mm^3 in size were injected i.p. with test or control antibodies. The NCI-H358 bearing mice were treated with 100 μg of antibodies per injection three times a week during the first week and twice a week during the second and third week. The mice were then switched to 50 μg per injection every five days. The HT1080 bearing mice were treated with 100 μg of the indicated antibody or saline every other day throughout the duration of the study. In both studies, mice were sacrificed when their tumors reached 2500 mm^3 in size or earlier if tumors began to ulcerate.

In a further series the test system is ABAE cells. Nature of the series: Endothelial cell growth assay (VEGF-mediated growth, MTS). The series is classed as cell-based, bovine.
The target in the next series is T2, VEGF and VEGF:Flk-1 (Homo sapiens, UniProt P15692).
T2 sequence (P15692 27-191 isoform P15692-4): T1 sequence (P15692 27-191 isoform P15692-4)
Nature of the series: Indirect and capture ELISA for reactivity with VEGF alone or VEGF associated with sFlk-1. It counts as binding. The settings on record: VEGF alone or VEGF associated with sFlk-1 (VEGF:Flk-1). The method, then:
The Flk-1/SEAP protein was produced and purified as described by Tessler et al. (1994). Basically, the extracellular domain of Flk-1 (sFlk-1) was produced in Spodoptera frugiperda (Sf9) cells and purified by immunoaffinity techniques utilizing a monoclonal anti-Flk-1 antibody (1A8). sFlk-1 was then biotinylated and bound on avidin-coated plates.
The reactivity was determined as described above for the initial screening.
A capture ELISA was also developed. In the capture ELISA, microtiter plates were-coated overnight at 4° C. with 100 ng of the indicated antibody. […] Streptavidin conjugated to peroxidase (Kirkegaard & Perry Laboratories, Inc.), diluted 1:2000, was used as a second layer and developed.

Series [3] deals with LS174T colon adenocarcinoma. Nature of the series: LS174T tumor model in mice. The settings on record: mice with established tumors. It counts as in vivo, mouse.
Series [4] deals with A673 rhabdomyosarcoma. Nature of the series: In vivo tumor growth inhibition, newly-implanted A673. Also noted: species or system mouse. The method, then: as §1
Series [5] deals with NCI-H358 NSCLC and HT29 colon adenocarcinoma xenografts. Description: In vivo localization to human tumor xenografts in tumor-bearing mice. The settings on record: i.v. 24 hours prior to sacrifice; 3E7 and GV39M bound tumor vascular endothelium, 2C3 tumor stroma. Also noted: species or system mouse. Background: A xenograft is tissue or cells of one species grown in another, often human tumour cells in immunodeficient mice.
Description: Tumors were grown subcutaneously in immunocompromised mice (NCI-H358 NSCLC in nu/nu mice and HT29 colon adenocarcinoma in SCID mice) until the tumor volume was approximately 1 cm^3. 100 μg of unlabeled antibody for studies using SCID mice, or 100 μg of biotinylated antibody for studies using nude mice, was injected intravenously via a tail vein. Twenty four hours later, the mice were anesthetized, perfused with PBS, and tumor and organs including heart, lungs, liver, kidneys, intestines and spleen were collected and snap frozen in liquid nitrogen.
The tumor and organs from each mouse were sectioned on a cryostat and stained for antibody immunohistochemically as above, with the exception that sections from the nude mice were developed using peroxidase labeled streptavidin-biotin complex (Dako, Carpinteria, Calif.) and the sections from the SCID mice were developed using two peroxidase-conjugated secondary antibodies, a goat anti-mouse IgG+IgM followed by a rabbit anti-goat IgG.
100 μg of GV39M and 3E7 or isotype-matched control IgG were injected into SCID mice bearing HT29 human colonic adenocarcinomas. Twenty-four hours later, the mice were sacrificed, exsanguinated and the tumors and tissues were removed.

The next series concerns NCI-H358 NSCLC tumors. Description: In vivo tumor therapy, established NCI-H358 xenografts. Also noted: species or system mouse. The method, then:
as §2
Doses were 50–100 μg every 3–5 days. […] In addition to measuring mean tumor volume (FIG. 4), photographs of the mice from each treatment group were also taken to show the differences in tumor size and appearance at the end of the study.

Another series concerns VEGFR2 (KDR/Flk-1). Description: ELISA of VEGF binding to VEGFR2-coated wells in presence of antibody. Conditions: 1000-fold molar excess of antibody over VEGF (1 nM). Also noted: species or system mouse.
Series [6] has as its system A673 rhabdomyosarcoma. Nature of the series: Treatment of mice with established A673 tumors. The series is classed as in vivo, mouse.
For series [7] the following is noted: patients having progressive disease before treatment; cited from earlier work.
Where [8] appears, read: 100 μg i.p. 2 times per wk from day 1, nu/nu mice.

Description for ABAE cells: Adult bovine aortic endothelial (ABAE) cells were plated into 96-well tissue culture plates at 1500 cells/well and grown in the presence of 0.5 nM human VEGF with the addition of the various sample and control antibodies. Control wells received media with or without VEGF.
After 4 days of incubation, the cells were quantified by an MTS (3-(4,5-dimethylthiazol-2-yl)-5-(3-carboxylmethoxyphenyl)-2-(4-sulfophenyl)-2H-tetrazolium, inner salt) conversion assay, where MTS conversion to a formazan is proportional to cell number and can be followed by absorbance at 490 nm (Cell Titer 96 AQueous One Solution Cell Proliferation Assay, Promega, Madison, Wis.). The assay was performed according to the manufacturer's instructions.
Cell growth was estimated by subtracting the MTS conversion in cultures to which VEGF was not added. Results were expressed as a percentage of the MTS conversion in control cultures to which only VEGF was added (Buttke et al., 1993).

As for 2C3 F(ab′)2: F(ab′)2 of 2C3, the “Blocking of VEGF binding to VEGFR2/Fc in solution” value in the series on VEGFR2 (KDR/Fc) was “blocked the binding of VEGF to VEGFR2/Fc”.
Consider 2C3-GUS, for which, in series [1], the “t½ α” value was “about 6 hours” and the “t½ β” value is “about 25 hours”. Further, the “Localization after i.v. injection” value in [2] (immunohistochemistry on frozen sections of tumors) is “specifically localized to tumor vasculature and surrounding tumor stroma”. Also, the “Time of maximal localization after injection” value in [2] (mouse, in vivo) was 24 to 48 h. Moreover, in series [2] (mouse, in vivo, iv), the “Staining of normal tissues” value is reported as “unstained”.
“2C3: monoclonal anti-VEGF antibody, IgG2a k, hybridoma ATCC PTA 1595; blocks VEGF binding to VEGFR2 but not VEGFR1”: the “Epitope on VEGF” value with VEGF was “not cross-reactive”. Further, in the series with VEGFR2 in PAE/KDR cells, the “Blocking of VEGF-induced phosphorylation of VEGFR2” value was “block VEGF-induced phosphorylation of VEGFR2”. In the series with NCI-H358 NSCLC (10 μg dose twice per wk), the Tumor growth retardation result is “less marked”. Further, the Final tumor volume entry in the series with NCI-H358 NSCLC (setting [8]) and in the series with A673 rhabdomyosarcoma [4] (setting [8]) was “approximately 150 mm^3” in each case. Besides, in the series with HT1080 fibrosarcoma, the Tumor growth entry is recorded as “arrested the growth of the tumors”. Besides, the “Blocks VEGF-induced proliferation” value with ABAE cells is listed as “Yes”. Besides, the “Predominant Reactivity” value with VEGF and VEGF:Flk-1 is listed as “VEGF”. Further, the “Growth of established tumors” value (in series [3]; with A673 rhabdomyosarcoma [6]) was “significantly slowed the growth” in each case. Further, the “Effect on growth of A673 tumors” value in the series on A673 rhabdomyosarcoma [4] (10 or 1 μg twice per wk, compared to untreated mice) is reported as “did slow the growth of A673 tumors”. Further, the “Immunohistochemical Reactivity Tumor” value in series [5] was 3+. In addition, the “Mean tumor volume after approximately 14 wk of treatment” value in the series on NCI-H358 NSCLC tumors (100 μg i.p., prolonged treatment (FIG. 5A)) came to 84 mm^3. The “Mean tumor volume at the end of the study, % of initial mean tumor volume” value in the series with NCI-H358 NSCLC tumors (50–100 μg i.p. every 3–5 days, approximately 10 weeks of treatment) turned out to be 30%. The same compound had a Mean tumor weight in the series with NCI-H358 NSCLC tumors (end of the study (day 116), FIG. 5A) of 0.054 g. The “Decrease in mean tumor volume” value in the series with NCI-H358 NSCLC tumors (start to approximately 14 wk of treatment (FIG. 5A)) is “approximately 80%”. Also, the “VEGF bound to VEGFR2-coated wells, % of amount bound in absence of antibody” value in the series on VEGFR2 (KDR/Flk-1) was about 19%.
`NC(=O)c1nnn(Cc2cc(Cl)c(C(=O)c3ccc(Cl)cc3)c(Cl)c2)c1N` [CAI, carboxyamidotriazole]: the “Cancer patients with disease stabilization” value in [7] is given as 49%.

Source of the values: patent publication US7056509B2 (Board of Regents The University of Texas System, priority 1999, dated 2006).
